The values that follow come from patent US9808470B2, “Estrogenic components for use in the treatment of neurological disorders” (UNIVERSITE DE LIEGE, priority 2012, dated 2017).

Each structure is given as a SMILES string.

For one data set, the system named is O4-positive cells. The data set can be described thus: Ex.6 IL-1β induced diffuse white matter injury mouse model: pre-oligodendrocyte maturation gene expression (qRT-PCR). Type of data set: in vivo. Particulars: P5. On the procedure:
Experimental protocols were approved by the institutional guidelines of the Institut National de la Santé et de la Recherche Scientifique (Inserm, France), and met the guidelines for the United States Public Health Service's Policy on Humane Care and Use of Laboratory Animals (NIH, Bethesda, Md., USA). Experiments were performed using OF1 strain mice purchased from Charles River (L'Arbresle, France) and born in our animal facility. Animals were housed under a 12 h light-dark cycle, had access to food and water ad libitum. Sex was determined at birth and confirmed at sacrifice. To avoid any potential variability linked to sex to differences. only male pups were used. […]
Preparation of samples for quantitative reverse-transcriptase polymerase-chain reaction (qRT-PCR), primer design, and PCR protocol, were similar to that previously described (Favrais et al., 2011; Chhor et al., 2013). […] RNA quality and concentration were assessed by spectrophotometry with the Nanodrop™ apparatus (Thermoscientific, Wilmington, Del., USA). […] The relative quantities are expressed as the specific ratio between the gene of interest and Rpl13 or GAPDH. The data are presented as relative mRNA units with respect to control values (expressed as a fold-difference with respect to the mean of sham values).
On the technique in general: Real-time PCR tracks product formation cycle by cycle.

Data set [1] is described as follows: Ex.2 neonatal HIE rat model, pre-treatment: body weight. Type of data set: in vivo. The protocol:
Sprague-Dawley pregnant rats were obtained from Janvier (France). After delivery newborn rat pups were housed with their dams and reared normally at room temperature (25° C.) under a 12-hour light-dark cycle. All experimental protocols were approved by the University of Liege Ethical Committee. All efforts were made to minimize animal suffering.
Estetrol (E4) was dissolved in saline solution at different concentrations and an equal volume (5 μl/g) of the solution was injected intraperitoneally into the pups from the E4 group(s). Rat pups from the Vehicle group were intraperitoneally injected a saline solution. Rat pups from the Sham group were not injected at all.
Ischemia was produced by surgery encompassing left common carotid artery double ligation and cut; hypoxia was produced by the inhalation of 11%-8% of oxygen balanced by nitrogen at decreased concentration of oxygen for 20 minutes, followed by inhalation of 8% oxygen and 92% nitrogen at constant concentration for 35 minutes.
After delivery, newborn rat pups were assigned to one of the following 4 groups: Sham group, Vehicle group, E4 5 mg/kg/per day group and E4 50 mg/kg/per day group. From day 4 to day 7 inclusive, rat pups were injected intraperitoneally either vehicle (Vehicle group) or E4 (5 mg/kg or 50 mg/kg in accordance to the group assignment) or not injected at all (Sham group). At day 7, 30 minutes after last injection, animals from Vehicle and E4 (5 mg/kg or 50 mg/kg) groups passed through surgery encompassing left common carotid artery double ligation and cut, followed by hypoxia produced by the inhalation of 11%-8% of oxygen balanced by nitrogen at decreased concentration for 20 minutes, followed by inhalation of 8% oxygen and 92% nitrogen at constant concentration for 35 minutes. The Sham group went through similar procedures without left common carotid artery ligation and hypoxia. All the manipulations were performed at 37° C. Rat pups recovered with their dams until being sacrificed at postnatal day 14. […]

For `C[C@]12CC[C@@H]3c4ccc(O)cc4CC[C@H]3[C@@H]1[C@@H](O)[C@@H](O)[C@@H]2O` [E4, 1,3,5(10)-estratrien-3,15α,16α,17β-tetrol], in the data set with O4-positive cells (5 mg/kg and 10 mg/kg E4 co-treatment), the “IL-1β-induced up-regulation in ID2 expression” value was “prevented”. The “expression of Hey2” value in the data set with O4-positive cells (IL-1β+E4 5 mg/kg, vs IL-1β alone) was “trend to up-regulation”. Further, the body weight result is recorded as “sham operated group had significantly higher body weight” in data set [1] (E4 5 mg/kg ip day 4-7 before HI, day 8, vs Sham); “significantly higher body weight than vehicle treated animals” in data set [1] (E4 5 mg/kg ip day 4-7 before HI, post-operative days 13 and 14, vs vehicle); “sham operated group had significantly higher body weight” in data set [1] (E4 50 mg/kg ip day 4-7 before HI, day 10, vs Sham).
